Laboratory results as given in patent US12077503B2, “Substituted cyclic amides and their use as herbicides” (FMC CORPORATION, priority 2015, dated 2024).

Assays:
Assay type in all cases: in vivo
[1] = test system: barnyardgrass (Echinochloa crus-galli); experiment: Test B flooded paddy test; conditions: Flood, 250 g ai/ha; 0 to 100 scale where 0 is no effect and 100 is complete control; 13 to 15 d
In short: (§1)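 Evaluation by eye, against controls, occurred 13–15 d post-treatment in a greenhouse, using a 0 (no effect) to 100 (complete control) scale. Application was into the paddy water, 3 cm deep over the soil, on 2-leaf plants.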

[2] = test system: ducksalad (Heteranthera limosa); experiment: Test B flooded paddy test; conditions: Flood, 250 g ai/ha; 0 to 100 scale where 0 is no effect and 100 is complete control; 13 to 15 d
In short: as §1

[3] = test system: sedge, umbrella (small-flower umbrella sedge, Cyperus difformis); experiment: Test B flooded paddy test; conditions: Flood, 250 g ai/ha
In short: as §1

rice (Oryra sativa) = experiment: Test B flooded paddy test; conditions: Flood, 250 g ai/ha; 0 to 100 scale where 0 is no effect and 100 is complete control; 13 to 15 d
In short: as §1

[4] = test system: barnyardgrass (Echinochloa crus-galli); experiment: Test A postemergence; conditions: postemergence, 0 to 100 scale (0 no effect, 100 complete control)
In short: (§2)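 Greenhouse, ~10 d after spray; visual injury vs untreated controls, 0 = no effect, 100 = complete control. Preemergence: directed soil spray over planted seeds. Postemergence: plants 2–10 cm, 1–2 leaf stage. Loam/sand blend. Compound in non-phytotoxic solvent with surfactant.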

[5] = test system: wheat (Triticum aestivum); experiment: Test A postemergence; conditions: postemergence, 0 to 100 scale (0 no effect, 100 complete control)
In short: as §2

corn (Zea mays) = experiment: Test A postemergence; conditions: postemergence, 0 to 100 scale (0 no effect, 100 complete control)
In short: as §2

[6] = test system: ryegrass, Italian (Italian ryegrass, Lolium multiflorum); experiment: Test A postemergence; conditions: postemergence, 0 to 100 scale (0 no effect, 100 complete control)
In short: as §2

Kochia (Kochia scoparia) [7] = experiment: Test A postemergence; conditions: postemergence, 0 to 100 scale (0 no effect, 100 complete control)
In short: as §2

[8] = test system: giant foxtail (Setaria faberii); experiment: Test A postemergence; conditions: postemergence, 0 to 100 scale (0 no effect, 100 complete control)
In short: as §2

[9] = test system: Galium (catchweed bedstraw, Galium aparine); experiment: Test A postemergence; conditions: postemergence, 0 to 100 scale (0 no effect, 100 complete control)
In short: as §2

[10] = test system: ragweed (common ragweed, Ambrosia elatior); experiment: Test A postemergence; conditions: postemergence, 0 to 100 scale (0 no effect, 100 complete control)
In short: as §2

[11] = test system: pigweed (Amaranthus retroflexus); experiment: Test A postemergence; conditions: postemergence, 0 to 100 scale (0 no effect, 100 complete control)
In short: as §2

[12] = test system: blackgrass (Alopecurus myosuroides); experiment: Test A postemergence; conditions: postemergence, 0 to 100 scale (0 no effect, 100 complete control)
In short: as §2

[13] = test system: barnyardgrass (Echinochloa crus-galli); experiment: Test A preemergence
In short: as §2

[14] = test system: ryegrass, Italian (Italian ryegrass, Lolium multiflorum); experiment: Test A preemergence
In short: as §2

Kochia (Kochia scoparia) [15] = experiment: Test A preemergence
In short: as §2

[16] = test system: giant foxtail (Setaria faberii); experiment: Test A preemergence
In short: as §2

[17] = test system: ragweed (common ragweed, Ambrosia elatior); experiment: Test A preemergence
In short: as §2

[18] = test system: pigweed (Amaranthus retroflexus); experiment: Test A preemergence
[19] = 125 g ai/ha, visual rating after approx. 10 d
[20] = 500 g ai/ha, visual injury, approx. 10 d
[21] = 125 g ai/ha, Preemergence, visual injury after approximately 10 d, 0 to 100 scale where 0 is no effect and 100 is complete control
[22] = 500 g ai/ha, preemergence, 0 to 100 scale, 0 = no effect, 100 = complete control
[23] = 125 g ai/ha, visual injury after approximately 10 d
[24] = 125 g ai/ha, preemergence, visual rating after approx. 10 d, 0 to 100 scale where 0 is no effect and 100 is complete control

Compound	Plant response rating, Barnyardgrass [1]	Plant response rating, Ducksalad [2]	Plant response rating, Rice (rice (Oryra sativa))	Plant response rating, Barnyardgrass [4, 19]	Plant response rating, Barnyardgrass [4, 20]	Plant response rating, Wheat [5, 20]	Plant response rating, Corn (corn (Zea mays); [20])	Plant response rating, Ryegrass, Italian [6, 20]	Plant response rating, Kochia (Kochia (Kochia scoparia) [7]; [20])	Plant response rating, Foxtail, Giant [8, 20]	Plant response rating, Galium [9, 20]	Plant response rating, Ragweed [10, 20]	Plant response rating, Pigweed [11, 20]	Plant response rating, Blackgrass [12, 19]	Plant response rating, Blackgrass [12, 20]	Plant response rating, Barnyardgrass [13, 21]	Plant response rating, Barnyardgrass [13, 22]	Plant response rating, Ryegrass, Italian [14, 22]	Plant response rating, Kochia (Kochia (Kochia scoparia) [15]; [21])	Plant response rating, Kochia (Kochia (Kochia scoparia) [15]; [22])	also measured
Cc1cccc(C2CN(C)C(=O)C2C(=O)Nc2ccccc2F)c1 (stereo not drawn) [Compound 666]	75	85	0	90	90	60	80	60	30	90	40	0	0	60	60	90	90	50	20	60	Plant response rating, Sedge, Umbrella ([3]; 0 to 100 scale where 0 is no effect and 100 is complete control, 13 to 15 d): 0; Plant response rating, Wheat [5, 19]: 20; Plant response rating, Corn (corn (Zea mays); [19]): 60; Plant response rating, Ryegrass, Italian [6, 19]: 20; Plant response rating, Kochia (Kochia (Kochia scoparia) [7]; [19]): 0; Plant response rating, Foxtail, Giant [8, 19]: 90; Plant response rating, Galium [9, 19]: 30; Plant response rating, Ragweed [10, 19]: 0; Plant response rating, Pigweed [11, 19]: 0; Plant response rating, Ryegrass, Italian [14, 21]: 20; Plant response rating, Foxtail, Giant [16, 21]: 100; Plant response rating, Foxtail, Giant [16, 22]: 100; Plant response rating, Ragweed [17, 21]: 0; Plant response rating, Ragweed [17, 22]: 70; Plant response rating, Pigweed [18, 21]: 0; Plant response rating, Pigweed [18, 22]: 20
CN1CC(c2ccc(C(C)(F)F)cc2)C(C(=O)Nc2ccccc2S(C)(=O)=O)C1=O (stereo not drawn) [Compound 692]	0	20	0	70	80	50	50	60	60	80	60	30	50	50	60	70	90	60	70	80	Sedge, Umbrella plant response rating ([3]; scale of 0 to 100 where 0 is no effect and 100 is complete control): 0; Plant response rating, Wheat [5, 23]: 0; Plant response rating, Corn (corn (Zea mays); [23]): 0; Plant response rating, Ryegrass, Italian [6, 23]: 50; Plant response rating, Kochia (Kochia (Kochia scoparia) [7]; [23]): 40; Plant response rating, Foxtail, Giant [8, 23]: 70; Plant response rating, Galium [9, 23]: 0; Plant response rating, Ragweed [10, 23]: 0; Plant response rating, Pigweed [11, 23]: 40; Plant response rating, Ryegrass, Italian [14, 24]: 20; Plant response rating, Foxtail, Giant [16, 21]: 80; Plant response rating, Foxtail, Giant [16, 22]: 90; Plant response rating, Ragweed [17, 24]: 50; Plant response rating, Ragweed [17, 22]: 70; Plant response rating, Pigweed [18, 24]: 80; Plant response rating, Pigweed [18, 22]: 90
